The values below come from patent US7790738B2, “Methods of treating and preventing AIDS using of COX-2 inhibitors” (Lauras AS, priority 2000, dated 2010).

Where “and” joins values, the source holds several entries; their conditions need not be identical. Equal values may be shown once. Read-outs that look alike come from different tables or passages of the source. Marks after values point to notes of the source that are not given here.

The target of data set [1] is T1, COX-2 (Homo sapiens, UniProt P35354).
T1 sequence (P35354 18-604): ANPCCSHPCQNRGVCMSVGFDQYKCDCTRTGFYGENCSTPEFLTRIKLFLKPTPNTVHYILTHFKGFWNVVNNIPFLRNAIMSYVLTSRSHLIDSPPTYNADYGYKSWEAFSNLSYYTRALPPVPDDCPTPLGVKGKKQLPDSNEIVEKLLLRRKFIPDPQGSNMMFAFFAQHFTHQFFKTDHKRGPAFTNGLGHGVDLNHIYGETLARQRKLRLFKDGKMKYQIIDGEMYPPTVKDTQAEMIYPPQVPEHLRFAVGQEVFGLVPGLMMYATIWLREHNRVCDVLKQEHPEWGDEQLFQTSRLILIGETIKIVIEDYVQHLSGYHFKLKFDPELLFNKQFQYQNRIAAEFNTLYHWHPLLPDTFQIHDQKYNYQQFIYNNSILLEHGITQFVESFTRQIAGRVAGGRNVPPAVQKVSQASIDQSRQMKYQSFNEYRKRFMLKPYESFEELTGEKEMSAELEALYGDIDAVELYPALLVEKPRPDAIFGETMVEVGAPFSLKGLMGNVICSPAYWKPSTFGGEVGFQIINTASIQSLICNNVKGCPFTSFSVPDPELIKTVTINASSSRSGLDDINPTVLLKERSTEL
The settings on record: cited from earlier work; for COX-2 selectivity COX-1/COX-2: ratio of IC50, recombinant human enzymes; for IC50: read-out: COX-2 IC50.

The target of data set [2] is COX-1 (Homo sapiens, UniProt P23219). Particulars: recombinant human PGH synthesis; Laneuvill et al. 1994; cited from earlier work.
The target in data set [3] is T2, COX-1 (Bos taurus, UniProt O62664).
T2 construct: IC50 values for NSAID's in intact cell on COX-1; endogenous in cells; host or cells: bovine endothelial cells
T2 sequence (O62664 25-600): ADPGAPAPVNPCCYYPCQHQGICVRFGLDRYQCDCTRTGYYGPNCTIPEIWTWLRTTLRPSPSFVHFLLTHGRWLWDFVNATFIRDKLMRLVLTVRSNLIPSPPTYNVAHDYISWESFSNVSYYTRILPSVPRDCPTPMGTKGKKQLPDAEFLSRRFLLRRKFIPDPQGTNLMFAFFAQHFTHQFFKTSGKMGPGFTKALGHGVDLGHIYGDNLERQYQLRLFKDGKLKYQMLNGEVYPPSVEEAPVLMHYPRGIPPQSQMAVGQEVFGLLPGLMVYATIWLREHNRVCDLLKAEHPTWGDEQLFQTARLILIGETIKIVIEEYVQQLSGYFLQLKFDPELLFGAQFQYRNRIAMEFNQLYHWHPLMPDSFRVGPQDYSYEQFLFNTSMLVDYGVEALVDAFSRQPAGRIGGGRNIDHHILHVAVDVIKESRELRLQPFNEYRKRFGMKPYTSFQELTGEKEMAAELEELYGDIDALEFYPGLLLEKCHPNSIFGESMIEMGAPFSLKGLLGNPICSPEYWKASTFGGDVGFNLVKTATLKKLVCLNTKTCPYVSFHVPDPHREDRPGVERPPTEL

Data set [4] deals with T3, COX-2 (Mus musculus, UniProt Q05769).
T3 construct: endogenous in cells
T3 sequence (Q05769 18-604): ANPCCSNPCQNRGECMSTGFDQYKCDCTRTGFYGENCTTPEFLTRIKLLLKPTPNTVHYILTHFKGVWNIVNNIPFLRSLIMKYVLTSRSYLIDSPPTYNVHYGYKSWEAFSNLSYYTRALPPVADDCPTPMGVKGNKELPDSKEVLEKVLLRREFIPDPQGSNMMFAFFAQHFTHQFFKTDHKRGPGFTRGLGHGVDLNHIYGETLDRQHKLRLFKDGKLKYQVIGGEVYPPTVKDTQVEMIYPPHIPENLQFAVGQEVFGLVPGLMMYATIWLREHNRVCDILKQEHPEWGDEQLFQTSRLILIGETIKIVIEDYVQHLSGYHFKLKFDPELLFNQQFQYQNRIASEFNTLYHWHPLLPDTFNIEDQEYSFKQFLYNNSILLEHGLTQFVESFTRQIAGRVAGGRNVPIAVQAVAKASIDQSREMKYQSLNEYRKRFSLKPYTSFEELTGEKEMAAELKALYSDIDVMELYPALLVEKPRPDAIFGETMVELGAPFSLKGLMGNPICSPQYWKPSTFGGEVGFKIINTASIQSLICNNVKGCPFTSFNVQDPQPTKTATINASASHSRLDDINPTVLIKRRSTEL
The settings on record: cited from earlier work; for IC50: read-out: COX-2 IC50.

The test system of data set [5] is lymph node mononuclear cells from MAIDS and control mice. Put plainly: anti-CD3 induced T cell proliferation in mixed unsorted lymph node cells, compound added in vitro. In kind it is cell-based, mouse. On the procedure: T cell activation was accomplished by cross-ligation of anti-CD3 (mAb 2C11; 4 μg/ml). […] Cells were cultured for 72 h during which [^3H] -thymidine was included for the last 4 h;
T cell activation was accomplished by cross-ligation of anti-CD3 (mAb 2C11; 4 μg/ml). […] Cells were cultured for 72 h during which [^3H ]-thymidine was included for the last 4 h;
The optimal concentration of antibody was titrated carefully in the initial setup and parallel experiments at several different dilutions of antibody was always performed. Proliferation was analyzed by incubating cells for 72 hours during which [^3H]-thymidine (0.4 μCi) was included for the last 4 hours and collected with a cell harvester (Skatron, Sterling, Va., USA) onto glass fiber filters. Incorporated precursor was counted in a scintillation analyzer (Tri-Carb, Packard, Meriden, Conn., USA). cAMP analogs, when used, were added 30 min prior to activation by addition of anti-CD3 antibodies.

Data set [6] concerns the target COX-1 (Cavia porcellus, UniProt H0V9X9). The settings on record: read-out: COX-1 IC50; guinea pig macrophage model; Engelhart et al. 1995; cited from earlier work.
In data set [7] the test system is HIV infected patients. Put plainly: phase II clinical trial, indomethacin in vivo, T cell proliferation after activation. The settings on record: for T cell immune function, patients responding: 7 patients. On the procedure: T cell activation was accomplished by cross-ligation of anti-CD3 (mAb SpVT3b). […] Bars show mean values±SD from triplicate determinations. Cells were cultured for 72 h during which [^3H]-thymidine was included for the last 16 h;
Mean values from triplicate determinations are plotted, connector lines show development of each patient;
Peripheral blood CD3+ T cells were purified by negative selection from buffycoats from normal healthy donors (Ullevaal University Hospital Blood Center, Oslo, Norway). Briefly, peripheral blood mononuclear cells were isolated by density gradient (Lymphoprep, NycoMed, Oslo, Norway) centrifugation followed by negative selection using monodisperse magnetic beads directly coated with antibodies to CD14 and CD19 and rat anti-mouse IgG beads coated with antibodies to CD56 and a magnet. […] All steps were performed at 4° C.
Proliferation assays were performed by incubation of 0.75×10^6 CD3+ T cells/ml in a 100 μl volume in flat-bottom 96-well microtiter plates. […] The optimal concentration of antibody was titrated carefully in the initial setup and parallel experiments at several different dilutions of antibody were always performed. Proliferation was analyzed by incubating cells for 72 hours during which [^3H]-thymidine was included for the last 16 hours. Cells were washed and harvested onto glass filters and subsequently analyzed by β-scintillation counting. CAMP analogs, when used, were added 30 min prior to activation by addition of anti-CD3 antibodies. 8-CPT-cAMP was from Sigma (St. Louis, Mo.).

Data set [8] has as its system CD3+ T cells from MAIDS and control mice. Put plainly: TCR/CD3 stimulated proliferation of isolated T cells, [3H]-thymidine incorporation. In kind it is cell-based, mouse. Particulars: median, read-out: Inhibition of proliferation by 8-CPT-cAMP (IC50). On the procedure:
TCR/CD3 stimulated T cell proliferation was assessed with isolated T cells from MAIDS mice (A) and uninfected control mice (B). The effect of increasing concentrations of cAMP agonist (8-CPT-cAMP) on TCR/CD3 stimulated proliferation of CD3+ T cells isolated from MAIDS (open circles, dotted line) and control mice (filled circles and solid line) was examined separately in the same experiments (C). Mean values of triplicate determinations±SD are shown. See Table 4 for summarised data (n=11). Note: Scaling differs in A and B, whereas in C the TCR/CD3 induced proliferation in the absence of cAMP agonist is normalized to 100% for both MAIDS and control T cells;
Activation was achieved by subsequent addition of monodisperse magnetic beads coated with sheep anti-mouse IgG (Dynal, cat. no. 110.02) at a cell:bead ratio of 1:1 followed by addition of anti-CD3 (clone 2C11) at a final dilution of 4 μg/ml for the experiments shown. […] 8-CPT-cAMP was from Sigma (St. Louis, Mo.) and Sp- and Rp-8-Br-cAMPS were from BioLog Life Science Company (Bremen, Germany) and were all dissolved to concentrations of 4 to 10 mM in PBS and concentrations calculated using the extinction coefficients given by the manufacturer.
A general note: Uptake of a labelled nucleoside into DNA is a usual measure of proliferation.

Setting [9] is: recombinant human PGH synthesis, Laneuvill et al. 1994.
Setting [10] is: read-out: COX-1 IC50; intact cell, bovine endothelial cells; Taketo 1998; cited from earlier work.
The mark [11] stands for this setting: intact cell, bovine endothelial cells; Taketo 1998; read-out: COX-1 IC50; cited from earlier work.
Where [12] appears, read: intact cell, stimulated macrophages, Taketo 1998.

Sequence of COX-1 (Cavia porcellus, UniProt H0V9X9) (H0V9X9 entry or part of it): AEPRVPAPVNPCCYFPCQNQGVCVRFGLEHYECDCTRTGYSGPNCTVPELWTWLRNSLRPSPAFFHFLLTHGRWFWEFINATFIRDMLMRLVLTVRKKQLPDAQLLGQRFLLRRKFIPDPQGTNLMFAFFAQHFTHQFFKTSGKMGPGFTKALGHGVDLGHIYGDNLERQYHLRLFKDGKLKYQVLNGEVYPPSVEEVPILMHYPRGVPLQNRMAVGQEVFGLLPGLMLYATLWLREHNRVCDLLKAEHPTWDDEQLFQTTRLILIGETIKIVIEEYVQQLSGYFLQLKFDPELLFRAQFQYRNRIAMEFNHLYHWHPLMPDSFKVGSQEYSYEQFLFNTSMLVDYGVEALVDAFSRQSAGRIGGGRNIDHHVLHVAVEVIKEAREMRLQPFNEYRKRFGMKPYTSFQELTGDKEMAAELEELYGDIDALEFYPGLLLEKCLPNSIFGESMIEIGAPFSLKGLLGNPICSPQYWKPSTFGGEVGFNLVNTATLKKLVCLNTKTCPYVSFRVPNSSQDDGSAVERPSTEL
Sequence of COX-1 (Homo sapiens, UniProt P23219) (P23219 24-599): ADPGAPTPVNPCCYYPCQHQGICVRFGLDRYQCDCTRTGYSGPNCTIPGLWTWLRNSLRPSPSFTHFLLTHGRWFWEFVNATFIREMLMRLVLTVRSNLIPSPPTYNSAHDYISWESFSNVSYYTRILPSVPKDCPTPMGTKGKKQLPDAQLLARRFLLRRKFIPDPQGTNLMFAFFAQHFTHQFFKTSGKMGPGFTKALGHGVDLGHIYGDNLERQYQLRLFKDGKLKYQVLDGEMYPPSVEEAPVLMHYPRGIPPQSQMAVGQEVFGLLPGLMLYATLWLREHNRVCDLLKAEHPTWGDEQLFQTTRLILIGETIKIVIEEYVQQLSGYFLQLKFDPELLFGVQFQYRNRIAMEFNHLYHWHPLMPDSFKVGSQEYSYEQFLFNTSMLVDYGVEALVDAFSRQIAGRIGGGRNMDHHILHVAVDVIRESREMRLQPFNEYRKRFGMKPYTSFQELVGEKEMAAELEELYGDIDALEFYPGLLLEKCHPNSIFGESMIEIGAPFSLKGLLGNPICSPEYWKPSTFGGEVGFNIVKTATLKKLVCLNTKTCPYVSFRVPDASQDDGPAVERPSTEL

Consider `Cc1ccc(Cl)c(Nc2ccccc2C(=O)O)c1Cl` [Meclofenemate], for which the “COX-2 selectivity COX-1/COX-2” value in data set [1] was 0.15. The values for the IC50 in data set [1] (setting [9]) and in data set [2] were 9700 nM and 1500 nM, respectively.

Turning to `CC(C(=O)O)c1ccc2c(c1)[nH]c1ccc(Cl)cc12` (centres unmarked) [Carprofen], the IC50 in data set [3] (setting [10]) is 3000 nM. In addition, in data set [4], the “COX-2 selectivity COX-1/COX-2” value is given as 1 and the IC50 is 3000 nM.

`CCCCC1C(=O)N(c2ccccc2)N(c2ccccc2)C1=O` [Phenylbutazone]: the IC50 in data set [1] (setting [9]) is above 100000 nM.

Turning to `COc1ccc2cc(CC(=O)O)ccc2c1` [6-MNA], the “COX-2 selectivity COX-1/COX-2” value in data set [1] is listed as 0.7. For the same compound, the values for the IC50 in data set [1] (setting [9]) and in data set [2] were 93500 nM and 64000 nM, respectively.

Turning to `COc1ccc2c(c1)c(CC(=O)O)c(C)n2C(=O)c1ccc(Cl)cc1` [Indomethacin], the “T cell proliferation, Indomethacin” value was 1412 in data set [5] (MAIDS mice, median, n = 7, no anti-CD3); 2363 and 7316 and 1412 and 1129 and 265 and 335 and 4317 in data set [5] (individual MAIDS mice, no anti-CD3, indomethacin 50 ng/ml). The “T cell proliferation, Indomethacin/Anti-CD3” value in data set [5] (MAIDS mice, median, n = 8, anti-CD3 plus indomethacin) was 15601**; in data set [5] (individual MAIDS mice, anti-CD3 plus indomethacin 50 ng/ml) it was 19624 and 31830 and 42244 and 9381 and 47926 and 1345 and 11579 and 8545. Further, the “effect on anti-CD3 induced proliferation” value in data set [5] (control cultures of uninfected mice, indomethacin) is “did not alter proliferation”; in data set [5] (mixed lymph node cells of five MAIDS-infected mice, 72 h) it was “strongly increased the proliferation of cells from five MAIDS-infected mice to levels comparable to that of control mice”. Besides, in data set [6], the IC50 was 0.21 nM. The “T cell immune function, patients responding” value in data set [7] (after 14 days of treatment, 25 mg three times a day) was “two of seven patients had clearly elevated T cell immune function”; in data set [7] (two weeks after discontinuation, versus day 0) it was “five of seven patients had elevated immune responsiveness”. For the same compound, in data set [7] (HIV patients, 50 mg 3 times a day), the adverse events entry was “epigastrial pain and dyspepsia”. For the same compound, the “increase of T cell responses after in vivo treatment” value in data set [7] (patient 3, 25 mg three times a day perorally, 14 days, persisted to day 28) was “approximately 2.5 fold”. Besides, the “T cell immune function after in vivo treatment” value in data set [7] (patients 1 and 2, 25 mg three times a day perorally, 14 days) is listed as “did not increase their immune function”.

For the compound `NC(=O)N1C(=O)/C(=C(\O)c2cccs2)c2cc(Cl)ccc21` [Teridep], in data set [6], the IC50 is 393 nM.

For `CN1C(C(=O)Nc2ccccn2)=C(O)c2ccccc2S1(=O)=O` [Piroxicam], the IC50 in data set [6] is 5.27 nM.

With `O=C(O)Cc1ccccc1Nc1c(Cl)cccc1Cl` [Diclofenac], the IC50 in data set [6] was 0.855 nM.

As for `Nc1ncnc2c1nc(Sc1ccc(Cl)cc1)n2[C@@H]1O[C@@H]2COP(=O)(O)O[C@H]2[C@H]1O` [8-CPT-cAMP], the IC50 amounted to 220 nM in data set [8] (MAIDS mice, n = 5) and 400 nM in data set [8] (control mice, n = 4).

As to `NC1=NN(c2cccc(C(F)(F)F)c2)CC1` [BW 755C], the IC50 in data set [3] (setting [10]) was 650 nM.

As to `O=C([O-])c1ccccc1O.[Na+]` [Sodium salicylate], the IC50 in data set [3] (setting [11]) is 35000 nM; in data set [4] (setting [12]) it was 100000 nM. Besides, the “COX-2 selectivity COX-1/COX-2” value in data set [4] (ratio of IC50, intact cells) is 0.35.

For the compound `CN1OCC/C(=C\c2cc(C(C)(C)C)c(O)c(C(C)(C)C)c2)C1=O` [BF 389], the IC50 in data set [3] (setting [11]) is 150 nM; in data set [4] (setting [12]) it was 30 nM. For the same compound, the “COX-2 selectivity COX-1/COX-2” value in data set [4] (ratio of IC50, intact cells) is listed as 5.

As for `Cc1c(Cl)cccc1Nc1ccccc1C(=O)O` [Tolfenamic acid], the IC50 is 0.3 nM in data set [3] (setting [11]) and 5 nM in data set [4] (setting [12]). In data set [4] (ratio of IC50, intact cells), the “COX-2 selectivity COX-1/COX-2” value is recorded as 0.06.

As to `CC(C(=O)O)c1ccc(-c2ccccc2)c(F)c1` (centres unmarked) [Flubiprofen], the IC50 in data set [3] (setting [11]) is 20 nM.

For `COc1ccc2cc([C@H](C)C(=O)O)ccc2c1` [Naproxen], the IC50 in data set [4] was 1300 nM.

With `CCc1cccc2c3c([nH]c12)C(CC)(CC(=O)O)OCC3` (centres unmarked) [Etodolac], the IC50 in data set [1] is 60000 nM.

In the case of `CC(=O)Nc1ccc(O)cc1` [Acetaminophen], the IC50 in data set [3] (setting [11]) was 2700 nM.
